Tests used:
A549 cells = test: Mitochondrial respiration (OCR) by Seahorse XF analyzer; assay type: cell-based, human; conditions: 5 μM
From the text: As Ru5 is located in mitochondria and inhibits ATPase related to mitochondrial respiration, we then evaluated its impact on oxygen consumption rate (OCR) using the Seahorse XF analyzer. Ru5 inhibits ATP-linked respiration, basal respiration and maximal respiration capacity, and it also increases the proton leak and alters non-mitochondrial respiration (Fig. 2A and Fig. S43). Accordingly, Ru5 treatment leads to an increase in the opening of the mitochondrial permeability transition pore (MPTP) of A549 in a concentration-dependent manner (Fig. 2B). […] The colocalization of the fluorescence of dihydrorhodamine 123 (DHR-123) with MitoTracker Deep Red (MTDR) indicates ROS are mainly generated in mitochondria (Fig. 2E).
Figure 2. […] (A) Impact of Ru5 (5 μM) on mitochondrial respiration of A549 cells measured by Seahorse. The OCR was measured under basal conditions, and after the sequential addition of oligomycin (1 μM), carbonyl cyanide 4-(trifluoromethoxy)phenylhydrazone (FCCP, 0.8 μM) and a mixture of rotenone (0.5 μM) and antimycin A (0.5 μM, R&A). […] The cells were treated with Ru5 for 6 h and analyzed by flow cytometry. λex = 488 nm, λem = 520 ± 20 nm. (C) Impact of Ru5 (5 μM) on MMP measured by JC-1 staining. […]

[1] = test system: cervical carcinoma (HeLa); test: MTT antiproliferative assay, HeLa; assay type: cell-based, human; conditions: 72 h
From the text: Ru3–Ru9 also show a certain selectivity for cancer cells over normal cells, and Ru2, Ru3, Ru5 and Ru9 show higher selectivity index (SI) values than the other complexes.
PA-BPP was then used to confirm the molecular targets of Ru5 by modifying it with a ‘minimalist’ biorthogonal handle-containing photo-cross-linker. Through our structure–activity relationship analysis and comparison with other ruthenium complexes utilizing phen as the auxiliary ligands with similar coordination structures (using cisplatin as a control), we propose that the β-carboline ligands play an important role in antiproliferative activity. To maintain the binding characteristics of the β-carboline moiety with the targeted biomolecules, we linked the photo-cross-linker to one of the auxiliary ligands of Ru5.

## F[P-](F)(F)(F)(F)F.F[P-](F)(F)(F)(F)F.[Ru+2].c1ccc2c(c1)[nH]c1c(-c3ncc[nH]3)nccc12.c1cnc2c(c1)ccc1cccnc12.c1cnc2c(c1)ccc1cccnc12 [Ru5]
A549 cells
  ATP-linked respiration, basal respiration and maximal respiration capacity (OCR): inhibits
[1]
  IC50: 3.1 ± 0.7 µM

— publication PMC11304990, “Identification of mitochondrial ATP synthase as the cellular target of Ru-polypyridyl-β-carboline complexes by affinity-based protein profiling” (National Science Review, 2024)
